Experimental data as given in patent publication US5272150A, “Hydroxyalkylfuranyl derivatives” (Janssen Pharmaceutica N.V., priority 1992, dated 1993).

System: compound 48/80-induced lethality in rats
Experiment: Protection of rats from compound 48/80-induced lethality
Type: in vivo
Details: Rattus norvegicus, subcutaneous administration (sc)
Description: Int. Pharmacodyn. Ther. 251, 39-51 (1981).
The term (sc) signifies subcutaneous administration.

SMILES	ED50
Cc1nc2n(c(=O)c1CCN1CCC(Cc3nc4ccccc4n3Cc3ccc(CO)o3)CC1)CCS2 [1.10]	0.01 mg/kg
O=c1[nH]c2ccccc2n1CCN1CCC(Nc2nc3ccccc3n2Cc2ccc(CO)o2)CC1 [3.19]	0.02 mg/kg
N#CCN1CCC(Nc2nc3ccccc3n2Cc2ccc(CO)o2)CC1 [Co. No. 3.22, 4-[[1-[[5-(hydroxymethyl)-2-furanyl]-methyl]-1H-benzimidazol-2-yl]amino]-1-piperidineacetonitrile]	0.04 mg/kg
Cn1cccc1C(=O)NCCN1CCC(Cc2nc3ccccc3n2Cc2ccc(CO)o2)CC1 [1.15]	0.04 mg/kg
Cc1nc2sccn2c(=O)c1CCN1CCC(Cc2nc3ccccc3n2Cc2ccc(CO)o2)CC1 [1.08]	0.01 mg/kg
CN1CCC(Nc2nc3cncnc3n2Cc2ccc(CO)o2)CC1 [5.04]	0.02 mg/kg
OCc1ccc(Cn2c(CC3CCN(CCc4ccccn4)CC3)nc3cccnc32)o1 [Co. No. 2.35, 5-[[2-[[1-[2-(2-pyridinyl)ethyl]-4-piperidinyl]methyl]-3H-imidazo[4,5-b]-pyridin-3-yl]methyl]-2-furanmethanol (E)-2-butenedioate(2:3)]	0.02 mg/kg
Cc1nc2sccn2c(=O)c1CCN1CCC(Nc2nc3cncnc3n2Cc2ccc(CO)o2)CC1 [5.03]	0.04 mg/kg
OCc1ccc(Cn2c(CC3CCN(CCNc4ncccn4)CC3)nc3ccccc32)o1 [1.23]	0.02 mg/kg
Cc1nc2ccccn2c(=O)c1CCN1CCC(Nc2nc3ccccc3n2Cc2ccc(CO)o2)CC1 [3.17]	0.04 mg/kg
O=[N+]([O-])c1cnccc1NCCN1CCCC(Nc2nc3ccccc3n2Cc2ccc(CO)o2)CC1 (stereo not drawn) [Co. No. 4.14, 5-[[2-[[hexahydro-1-[2-[(3-nitro-4-pyridinyl)amino]ethyl]-1H-azepin-4-yl]amino]-1H-benzimidazol-1-yl]methyl]-2-furanmethanol hemihydrate]	0.04 mg/kg
Cc1nc2n(c(=O)c1CCN1CCC(Nc3nc4ccccc4n3Cc3ccc(CO)o3)CC1)CCS2 [3.15]	0.04 mg/kg
Cc1nc2n(c(=O)c1CCN1CCC(Nc3nc4ccccc4n3Cc3ccc(CO)o3)CC1)CCCS2 [Co. No. 3.31]	0.04 mg/kg
O=c1ccc(NCCN2CCC(Cc3nc4ccccc4n3Cc3ccc(CO)o3)CC2)n[nH]1 [Co. No. 1.25, 6-[[2-[4-[[1-[[5-(hydroxymethyl)-2-furanyl]methyl]-1H-benzimidazol-2-yl]methyl]-1-piperidinyl]ethyl]amino]-3(2H)-pyridazinone ethanedioate (2:5)]	0.01 mg/kg
CCn1nnn(CCN2CCC(Cc3nc4ccccc4n3Cc3ccc(CO)o3)CC2)c1=O [1.07]	0.04 mg/kg
CN1CCC(Cc2nc3ccccc3n2Cc2ccc(CO)o2)CC1 [Co. No. 1.17, 5-[[2-[(1-methyl-4-piperidinyl)methyl]-1H-benzimidazol-1-yl]methyl]-2-furanmethanol]	0.04 mg/kg
O=C(O)C(=O)O.O=C(O)C(=O)O.O=C(O)C(=O)O.OCc1ccc(Cn2c(CC3CCN(CCNc4cccnn4)CC3)nc3ccccc32)o1 [Co. No. 1.24, 5-[[2-[[1-[2-(3-pyridazinylamino)ethyl]-4-piperidinyl]methyl]-1H-benzimidazol-1-yl]methyl]-2-furanmethanol ethanedioate (1:3)]	0.02 mg/kg
CCn1nnn(CCN2CCC(Nc3nc4ccccc4n3Cc3ccc(CO)o3)CC2)c1=O [3.13]	0.04 mg/kg
OCc1ccc(Cn2c(NC3CCNCC3)nc3ccccc32)o1 [Co. No. 3.11, 5-[[2-(4-piperidinylamino)-1H-benzimidazol-1-yl]methyl]-2-furanamethanol]	0.04 mg/kg
O=[N+]([O-])c1cnccc1NCCN1CCC(Nc2nc3ccccc3n2Cc2ccc(CO)o2)CC1 [Co. No. 3.26, 5-[[2-[[1-[2-[(3-nitro-4-pyridinyl)amino]-ethyl]-4-piperidinyl]amino]-1H-benzimidazol-1-yl]methyl]-2-furanmethanol]	0.04 mg/kg
Cc1cc2nc(C)c(CCN3CCC(Nc4nc5cccnc5n4Cc4ccc(CO)o4)CC3)c(=O)n2o1 [2.32]	0.02 mg/kg
COc1ccc(CCN2CCC(Cc3nc4ccccc4n3Cc3ccc(CO)o3)CC2)cc1 [1.11]	0.04 mg/kg
CC(C)NC(=O)CCN1CCC(Cc2nc3ccccc3n2Cc2ccc(CO)o2)CC1 [1.12]	0.01 mg/kg
Cc1nc2ccccn2c(=O)c1CCN1CCC(Cc2nc3ccccc3n2Cc2ccc(CO)o2)CC1 [1.09]	0.02 mg/kg
Cc1nc2sccn2c(=O)c1CCN1CCC(Nc2nc3cccnc3n2Cc2ccc(CO)o2)CC1 [2.09]	0.01 mg/kg
CN1CCC(Nc2nc3ccccc3n2Cc2ccc(CO)o2)CC1 [3.03]	0.02 mg/kg
CC(C)NC(=O)CCN1CCC(Nc2nc3ccccc3n2Cc2ccc(CO)o2)CC1 [Co. No. 3.12]	0.04 mg/kg
Cc1nc2ccccn2c(=O)c1CCN1CCC(Nc2nc3cccnc3n2Cc2ccc(CO)o2)CC1 [2.10]	0.04 mg/kg
OCc1ccc(Cn2c(CC3CCN(CCNc4cnccn4)CC3)nc3ccccc32)o1 [1.22]	0.04 mg/kg
Cc1nc2n(c(=O)c1CCN1CCC(Cc3nc4cccnc4n3Cc3ccc(CO)o3)CC1)CCCS2 [2.33]	0.04 mg/kg
